The text below walks through data of ChEMBL document CHEMBL5247615, “Discovery of 5-(3,4-dihydroxybenzylidene)-1,3-dimethylpyrimidine- 2,4,6(1H,3H,5H)-trione as a novel and effective cardioprotective agent via dual anti-inflammatory and anti-oxidative activities” (Eur J Med Chem, 2022).

Data set [1] concerns H9c2. The data set can be described thus: Cardioprotective activity against hydrogen peroxide induced cell injury in rat H9c2 cells at 40 uM pretreated for 24 hrs followed by treatment with hydrogen peroxide for 2 hrs by MTT assay. The format is functional, cell-based. The settings on record: time 26.0 hrs. A general note: Tetrazolium assays rely on reduction of a dye to a coloured formazan, in cell work by metabolically active cells.

Data set [2] concerns H9c2. As to the kind of experiment: Cardioprotective activity against hydrogen peroxide induced cell injury in rat H9c2 cells at 5 to 20 uM pretreated with compound for 24 hrs followed by hydrogen peroxide addition for 2 hrs by MTT assay. The settings on record: dose 5-20 µM, time 26.0 hrs. The format is functional, cell-based.
For data set [3], the system named is H9c2. As to the kind of experiment: Cardioprotective activity against hydrogen peroxide induced cell injury in rat H9c2 cells assessed as increase in cell viability at 5 to 20 uM measured after 24 hrs by MTT assay. The format is functional, cell-based. As to conditions: dose 5-20 µM.
Data set [4] relates to H9c2. The data set can be described thus: Cardioprotective activity against hydrogen peroxide induced cell injury in rat H9c2 cells assessed as increase in cell viability at 5 uM measured after 24 hrs by MTT assay. The format is functional.
In data set [5] the test system is Rattus norvegicus. As to the kind of experiment: Antiinflammatory activity in myocardial ischemia/reperfusion induced ip dosed Sprague-Dawley rat injury model assessed as increase in CAT activity administered once a day for 2 weeks by Western blotting analysis. The format is functional, organism-based. As to conditions: dose 5-20 mg/kg.
Data set [6] relates to Rattus norvegicus. As to the kind of experiment: Cardioprotective activity in myocardial ischemia/reperfusion induced Sprague-Dawley rat injury model assessed as decrease in ST-segment elevation at 5 to 20 mg/kg, ip administered once a day for 2 weeks measured by electrocardiogram. The settings on record: dose 5-20 mg/kg. Format: functional, organism-based.
Data set [7] relates to H9c2. As to the kind of experiment: Inhibition of autophagy in hydrogen peroxide induced rat H9c2 cells assessed as down regulation of p62 mRNA level at 5 to 20 uM pretreated with compound for 24 hrs followed by treatment with hydrogen peroxide for 2 hrs. The settings on record: dose 5-20 µM, time 26.0 hrs. Format: functional, cell-based.
Data set [8] deals with H9c2. The data set can be described thus: Cardioprotective activity against hydrogen peroxide induced cell injury in rat H9c2 cells assessed as reduction in loss of cell membrane integrity by measuring LDH level at 10 uM pretreated with compound for 24 hrs followed by treatment with hydrogen peroxide for 2 hrs relative to control. Also on record: scale not given: the % may be the effect or the level left. The format is functional.

Data set [9] relates to Rattus norvegicus. The data set can be described thus: Antiinflammatory activity in myocardial ischemia/reperfusion induced ip dosed Sprague-Dawley rat injury model assessed as decrease in IL-1beta protein expression in heart administered once a day for 2 weeks by Western blotting analysis. Format: functional, organism-based. As to conditions: dose 5-20 mg/kg.
Data set [10] deals with Rattus norvegicus. The data set can be described thus: Antiinflammatory activity in myocardial ischemia/reperfusion induced ip dosed Sprague-Dawley rat injury model assessed as decrease in MDA level administered once a day for 2 weeks by Western blotting analysis. Format: functional, organism-based. As to conditions: dose 5-20 mg/kg. (Immunoblotting shows a protein as a band on a membrane.)

Data set [11] relates to H9c2. As to the kind of experiment: Antioxidant activity in hydrogen peroxide induced rat H9c2 cells assessed as increase in SOD expression pretreated with compound for 24 hrs followed by treatment with hydrogen peroxide for 2 hrs. As to conditions: dose 5-20 µM, time 26.0 hrs. Format: functional, cell-based.
The subject of data set [12] is H9c2. The data set can be described thus: Inhibition of autophagy in hydrogen peroxide induced rat H9c2 cells assessed as down regulation of […] mRNA level at 5 to 20 uM pretreated with compound for 24 hrs followed by treatment with hydrogen peroxide for 2 hrs. Format: functional, cell-based. As to conditions: dose 5-20 µM, time 26.0 hrs.
The subject of data set [13] is H9c2. As to the kind of experiment: Antiinflammatory activity in hydrogen peroxide induced rat H9c2 cells assessed as reversal of increase in IL-18 mRNA expression pretreated with compound for 24 hrs followed by treatment with hydrogen peroxide for 2 hrs. The format is functional, cell-based. The settings on record: dose 5-20 µM, time 26.0 hrs.
Data set [14] relates to H9c2. As to the kind of experiment: Antioxidant activity in hydrogen peroxide induced rat H9c2 cells assessed as increase in HO-1 expression pretreated with compound for 24 hrs followed by treatment with hydrogen peroxide for 2 hrs. Format: functional, cell-based. The settings on record: dose 5-20 µM, time 26.0 hrs.
Data set [15] deals with Rattus norvegicus. The data set can be described thus: Cardioprotective activity in myocardial ischemia/reperfusion induced Sprague-Dawley rat injury model assessed as reduction in cardiac infarct size at 10 mg/kg, ip administered once a day for 2 weeks measured by Evans blue staining analysis (reference value: 46.8%). Format: functional, Heart. Also on record: scale not given: the % may be the effect or the level left.

The test system of data set [16] is Rattus norvegicus. The data set can be described thus: Cardioprotective activity in myocardial ischemia/reperfusion induced Sprague-Dawley rat injury model assessed as reduction in heart cardiac infarct size at 20 mg/kg, ip administered once a day for 2 weeks measured by Evans blue staining analysis (reference value: 46.8%). Also on record: scale not given: the % may be the effect or the level left. The format is functional.

Data set [17] concerns H9c2. As to the kind of experiment: Cardioprotective activity against hydrogen peroxide induced cell injury in rat H9c2 cells assessed as reduction in loss of cell membrane integrity by measuring LDH level at 20 uM pretreated with compound for 24 hrs followed by treatment with hydrogen peroxide for 2 hrs relative to control. The format is functional. Also on record: scale not given: the % may be the effect or the level left.

Data set [18] has as its system Rattus norvegicus. As to the kind of experiment: Antiinflammatory activity in myocardial ischemia/reperfusion induced ip dosed Sprague-Dawley rat injury model assessed as decrease in NLRP3 protein expression in heart administered once a day for 2 weeks by Western blotting analysis. The format is functional, organism-based. As to conditions: dose 5-20 mg/kg.
Data set [19] has as its system H9c2. The data set can be described thus: Cardioprotective activity against hydrogen peroxide induced cell injury in rat H9c2 cells assessed as reversal of abnormal cell morphology pretreated with compound for 24 hrs followed by treatment with hydrogen peroxide for 2 hrs. The format is functional, cell-based. The settings on record: dose 5-20 µM, time 26.0 hrs.
The test system of data set [20] is H9c2. As to the kind of experiment: Antiinflammatory activity in hydrogen peroxide induced rat H9c2 cells assessed as reversal of increase in NLRP-3 mRNA expression pretreated with compound for 24 hrs followed by treatment with hydrogen peroxide for 2 hrs. The format is functional, cell-based. The settings on record: dose 5-20 µM, time 26.0 hrs.
The subject of data set [21] is H9c2. The data set can be described thus: Antiinflammatory activity in hydrogen peroxide induced rat H9c2 cells assessed as reversal of increase in IL-1beta mRNA expression pretreated with compound for 24 hrs followed by treatment with hydrogen peroxide for 2 hrs. Format: functional, cell-based. The settings on record: dose 5-20 µM, time 26.0 hrs.
For data set [22], the system named is H9c2. As to the kind of experiment: Antioxidant activity in hydrogen peroxide induced rat H9c2 cells assessed as increase in Nrf2 expression pretreated with compound for 24 hrs followed by treatment with hydrogen peroxide for 2 hrs. The format is functional, cell-based. As to conditions: dose 5-20 µM, time 26.0 hrs.
Data set [23] deals with H9c2. The data set can be described thus: Cardioprotective activity against hydrogen peroxide induced cell injury in rat H9c2 cells assessed as reduction in loss of cell membrane integrity by measuring LDH level at 5 uM pretreated with compound for 24 hrs followed by treatment with hydrogen peroxide for 2 hrs relative to control. The format is functional. Also on record: scale not given: the % may be the effect or the level left.

For data set [24], the system named is Rattus norvegicus. As to the kind of experiment: Antioxidant activity in myocardial ischemia/reperfusion induced Sprague-Dawley rat injury model assessed as […] Nrf2 expression administered at 10 mg/kg, ip once a day for 2 weeks by Western blotting analysis. Format: functional, organism-based.
Data set [25] has as its system Rattus norvegicus. The data set can be described thus: Antiinflammatory activity in myocardial ischemia/reperfusion induced Sprague-Dawley rat injury model assessed as decrease in IL-1beta protein expression in heart at 10 mg/kg, ip administered once a day for 2 weeks by Western blotting analysis. Format: functional, organism-based.
Data set [26] relates to Rattus norvegicus. As to the kind of experiment: Cardioprotective activity in myocardial ischemia/reperfusion induced ip dosed Sprague-Dawley rat injury model assessed as increase in heart AST level administered once a day for 2 weeks. As to conditions: dose 5-20 mg/kg. The format is functional, organism-based.
The test system of data set [27] is H9c2. As to the kind of experiment: Cytotoxicity against rat H9c2 cells assessed as reduction in cell viability upto 100 uM measured after 24 hrs by MTT assay relative to control. Format: toxicity, cell-based. As to conditions: h9c2, 24 h.
In data set [28] the test system is Rattus norvegicus. The data set can be described thus: Cardioprotective activity in myocardial ischemia/reperfusion induced ip dosed Sprague-Dawley rat injury model assessed as increase in heart LDH level administered once a day for 2 weeks. The format is functional, organism-based. The settings on record: dose 5-20 mg/kg.

Active and inactive are the calls of the source. The calls are words filed in the database; no cut-off is given here.

As for `COCCc1ccc(OCC(O)CNC(C)C)cc1` (stereo not drawn), the outcome in the data set with H9c2 [1] was Active.

For the compound `Cc1ccc(O)c(C=C2C(=O)N(C)C(=O)N(C)C2=O)c1`, the result in the data set with H9c2 [2] was Active.

Turning to `CN1C(=O)C(=Cc2ccccc2O)C(=O)N(C)C1=O`, the outcome in the data set with H9c2 [3] was Active. The Activity in the data set on H9c2 [4] was 40.3%.

Regarding `O=c1cc(-c2ccc(O)c(O)c2)oc2cc(O)cc(O)c12`, in the data set on H9c2 [1], the result was Active.

With `CN1C(=O)C(=Cc2ccc(O)c(O)c2)C(=O)N(C)C1=O`, the outcome in the data set with Rattus norvegicus [5], in the data set on Rattus norvegicus [6], with H9c2 [2], in the data set on Rattus norvegicus [9], in the data set on Rattus norvegicus [10] and with H9c2 [3] was Active. The result in the data set on Rattus norvegicus [18] and with Rattus norvegicus [25] was Active. Besides, the inhibition result in the data set on H9c2 [7] and in the data set with H9c2 [12] was “Active” in each case. Also, the Activity in the data set with H9c2 [8] is 35.6%; with H9c2 [11], “Dose-Dependent Effect”; in the data set on H9c2 [13], “Dose-Dependent Effect”; with H9c2 [14], “Dose-Dependent Effect”; with Rattus norvegicus [15], 32.3%; with Rattus norvegicus [16], 22.3%. The Activity in the data set with H9c2 [17] was 60.7%; in the data set with H9c2 [19] it was “Dose-Dependent Effect”; in the data set on H9c2 [20], “Dose-Dependent Effect”; in the data set with H9c2 [21], “Dose-Dependent Effect”; in the data set on H9c2 [22], “Dose-Dependent Effect”; in the data set on H9c2 [23], 15.3%. Moreover, the Activity result in the data set with Rattus norvegicus [26] is “Dose-Dependent Effect”; in the data set on H9c2 [27], “Non-Toxic”; with Rattus norvegicus [28], “Dose-Dependent Effect”; with H9c2 [4] it was 77.5%. For the same compound, the result with Rattus norvegicus [24] was inactive.

Turning to `CN1C(=O)C(=Cc2cccc(O)c2O)C(=O)N(C)C1=O`, in the data set on H9c2 [2], the outcome was Active.
